Test results published in patent US20120122935A1, “COMPOSITIONS AND METHODS FOR TREATING NECROTIZING ENTEROCOLITIS” (NATIONWIDE CHILDREN'S HOSPITAL, INC., priority 2007, published 2012).
Marks after values point to notes of the source that are not given here.

What was measured:
[1] = doses of 500 mg/kg or more in animal preparations; cited from earlier work
[2] = system: Human fetal intestinal epithelial cells (FHS741NT); experiment: in vitro model of immature intestinal wound restitution (scrape wound plus LPS); format: cell-based; details: 50 mg/ml nicotinamide after wounding and LPS administration, FIG. 14
Description: We have established cell culture conditions for neonatal human intestinal epithelial cells (IEC), which we have developed as a platform for investigating cellular responses and identifying potential protection strategies. Human fetal intestinal epithelial cells (FHS741NT), passage seven or less, were seeded (40,000 cells/ml) in poly-1-lysine coated 8-chamber slides (Labtek II; Nunc, Rochester, N.Y.) in media (DMEM containing 10% FBS, L-glutamine (2 mM), EGF (30 ng/ml), and insulin (10 μg/ml)) and allowed to reach confluence. A wound was created in the cell monolayer using a specific cell scraper device attached to a microscope. The microscope stage controls allow the creation of a reproducible straight wound in each slide chamber (width 500 μm). After wounding, media was replaced with media (DMEM with 10% FBS, L-glutamine (2 mM)) containing the appropriate treatment compound. […]
Digital images of wounds were captured using a 10× objective on an inverted microscope (Olympus, Melville, N.Y.) with an attached digital camera (Diagnostic Instruments, Sterling Heights, Mich.). […] For each subsequent image, the AOI was placed over the position of the original wound and the area occupied by cells was measured. […] Results were expressed as mean % closure where % closure=area of wound occupied by cells/area of original wound. […]

[3] = system: newborn rat model of NEC; experiment: newborn rat model of NEC (formula feeding, hypoxia, hypothermia, LPS); format: in vivo; details: for Percent of Pups with NEC (any grade) / Percent of Pups with NEC Grade >2: one oral dose each day, n=8; for overall survival of pups exposed to the rat NEC model: nicotinamide treated vs control pups, FIG. 8
Description: We have established valuable preclinical animal models that mimic intestinal injury in NEC. (Caplan M S, Hedlund E, Adler L, et al. Role of asphyxia and feeding in a neonatal rat model of necrotizing enterocolitis. Pediatr Pathol. November-December 1994; 14(6):1017-1028.) The model involves exposing neonatal rat pups to hypoxia, hypothermia, and formula feeding, leading to physiological stress and intestinal injury that pathologically is very similar to NEC in infants. Pups are delivered by cesarean section at E20 from timed pregnant dams. Pups are fed every 3 h with one skipped feed at 4 am (7 times/day) by oral gavage with 100 ul of a hypertonic formula (Similac and Esbilac). At 8 h post-delivery, pups are treated with 2 mg/kg LPS orally with feeding. Beginning on DOL 1, pups are fed every 3 h and subjected to hypoxic (2 min in 100% nitrogen) and hypothermal (10 min at 4° C.) stress twice daily immediately after feeds. Pups are sacrificed at DOL 4, or when discomfort warrants. Upon sacrifice, the distal ileum is collected in two sections. One section is immediately fixed in 10% neutral buffered formalin, and the other is snap-frozen in liquid nitrogen. Tissues are fixed for 48 h before histological processing and embedding in paraffin.
Each photomicrograph represents a different severity grading score of intestinal injury in this model as follows: (A)=Grade 0 or normal, (B)=Grade 1 or minimal intestinal damage, (C)=Grade 2 or minimal/modest intestinal damage, (D)=Grade 3 or moderate intestinal injury, (E) Grade 4 or severe intestinal injury. This system is based on the previously published intestinal injury grading system for the newborn rat intestinal model of NEC induced by formula feeding-hypoxia-hypothermia.

NC(=O)c1cccnc1 [Nicotinamide, nicotinamide]
reported toxicities [1]: little or no reported toxicities | wound healing (epithelial restitution) [2]: improves wound healing | wound healing (epithelial restitution) ([2]; listed as nicotinamide): improved wound healing | Percent of Pups with NEC (any grade) ([3]; 50 mg/kg nicotinamide): 12.5%* | Percent of Pups with NEC Grade >2 ([3]; 50 mg/kg nicotinamide): 12.5% | Percent of Pups with NEC (any grade) ([3]; 500 mg/kg nicotinamide): 0%* | Percent of Pups with NEC Grade >2 ([3]; 500 mg/kg nicotinamide): 0% | overall survival of pups exposed to the rat NEC model [3]: improved overall survival | overall survival of pups exposed to the rat NEC model ([3]; listed as nicotinamide): improves survival | evidence of NEC Grade 2 or greater ([3]; one oral dose daily at 500 mg/kg): no evidence of NEC Grade 2 or greater | protection against development of NEC / intestinal injury ([3]; one oral dose of 50 or 500 mg/kg each day): strikingly protective against the development of any NEC
